{"source": "patent US6620585B1", "about": "“Use of ectoenzymes and secreted enzymes to monitor cellular proliferation” (priority 2000, dated 2003)", "note": "Positions of bridges follow the written chain, without caps; N, C: chain ends. Non-standard residues stand in square brackets, D forms with d. Residues, ends and D or L forms follow the SMILES beside them. *: point of attachment. Ileψ(thiazoline)Cys = CC[C@H](C)[C@H](N)C1=N[C@H](C(=O)*)CS1; dOrn = NCCC[C@@H](N)C(=O)O"}
{"test_system": "bacterial strain engineered for expression of an antisense complementary to a proliferation-required 50S ribosomal protein (rplL and rplJ)", "assay": "not given", "type": "cell-based, E. coli", "conditions": "antisense to rplL and rplJ induced, 400 μM IPTG; growth by light scattering at 595 nm, mid-exponential time point", "experimental": "(§1) The effectiveness of the above assays was validated using proliferation-required genes from E. coli which were identified using procedures similar to those described above. Antibiotics of various chemical classes and modes of action were purchased from Sigma Chemicals (St. Louis, Mo.). Stock solutions were prepared by dissolving each antibiotic in an appropriate aqueous solution based on information provided by the manufacturer. The final working solution of each antibiotic contained no more than 0.2% (w/v) of any organic solvent. To determine their potency against a bacterial strain engineered for expression of an antisense complementary to a proliferation-required 50S ribosomal protein, each antibiotic was serially diluted two or three fold in growth medium supplemented with the appropriate antibiotic for maintenance of the anti-sense construct. At least ten dilutions were prepared for each antibiotic. 25 μL aliquots of each dilution were transferred to discrete wells of a 384-well microplate (the assay plate) using a multi-channel pipette. Quadruplicate wells were used for each dilution of an antibiotic under each treatment condition (plus and minus inducer). Each assay plate contained twenty wells for cell growth controls (growth media replacing antibiotic), ten wells for each treatment (plus and minus inducer, in this example IPTG). Assay plates were usually divided into the two treatments: half the plate containing induced cells and an appropriate concentrations of inducer (in this example IPTG) to maintain the state of induction, the other half containing non-induced cells in the absence of IPTG.\n(§2) Cells for the assay were prepared as follows. Bacterial cells containing a construct, from which expression of antisense nucleic acid complementary to rplL and rplJ, which encode proliferation-required 50S ribosomal subunit proteins, is inducible in the presence of IPTG, were grown into exponential growth (OD600 0.2 to 0.3) and then diluted 1:100 into fresh media containing either 400 μM or 0 μM inducer (IPTG). These cultures were incubated at 37° C. for 2.5 hr. After a 2.5 hr incubation, induced and non-induced cells were respectively diluted into an assay medium at a final OD600 value of 0.0004. The medium contained an appropriate concentration of the antibiotic for the maintenance of the antisense construct. In addition, the medium used to dilute induced cells was supplemented with 800 μM IPTG so that addition to the assay plate would result in a final IPTG concentration of 400 μM. Induced and non-induced cell suspensions were dispensed (25 μl/well) into the appropriate wells of the assay plate as discussed previously. The plate was then loaded into a plate reader, incubated at constant temperature, and cell growth was monitored in each well by the measurement of light scattering at 595 nm. Growth was monitored every 5 minutes until the cell culture attained a stationary growth phase. For each concentration of antibiotic, a percentage inhibition of growth was calculated at the time point corresponding to mid-exponential growth for the associated control wells (no antibiotic, plus or minus IPTG). For each antibiotic and condition (plus or minus IPTG), a plot of percent inhibition versus log of antibiotic concentration was generated and the IC50 determined.", "units": {"IC50 (+IPTG)": "µg/mL"}}
{"molecule": "CN(C)c1ccc(O)c2c1C[C@H]1C[C@H]3[C@H](N(C)C)C(O)=C(C(N)=O)C(=O)[C@@]3(O)C(O)=C1C2=O", "note": "[Minocycline]", "IC50 (+IPTG)": 0.003897}
{"molecule": "CN[C@@H]1[C@H](O)[C@H](NC)[C@H]2O[C@@]3(O)C(=O)C[C@@H](C)O[C@H]3O[C@@H]2[C@H]1O", "note": "[Spectinomycin]", "IC50 (+IPTG)": "<0.156"}
{"test_system": "bacterial strain engineered for expression of an antisense complementary to a proliferation-required 50S ribosomal protein (rplL and rplJ)", "assay": "not given", "type": "cell-based, E. coli", "conditions": "significant decrease in IC50 in the presence of inducer (IPTG)", "experimental": "as §1, §2"}
{"molecule": "CC[C@H](C)[C@H](N)C1=N[C@H](C(=O)N[C@@H](CC(C)C)C(=O)N[C@H](CCC(=O)O)C(=O)N[C@H](C(=O)N[C@H]2CCCCNC(=O)[C@H](CC(N)=O)NC(=O)[C@@H](CC(=O)O)NC(=O)[C@H](Cc3cnc[nH]3)NC(=O)[C@@H](Cc3ccccc3)NC(=O)[C@H]([C@@H](C)CC)NC(=O)[C@@H](CCCN)NC2=O)[C@@H](C)CC)CS1", "note": "[Bacitracin] ({Ileψ(thiazoline)Cys}-L[dE]IK[dOrn]I[dF]H[dD]N; lactam 4-C)", "Sensitivity Increased ?": "No"}
{"molecule": "CO/N=C(\\C(=O)N[C@@H]1C(=O)N2C(C(=O)O)=C(COC(C)=O)CS[C@H]12)c1csc(N)n1", "note": "[Cefotaxime]", "Sensitivity Increased ?": "No"}
{"molecule": "CO[C@@]1(NC(=O)Cc2cccs2)C(=O)N2C(C(=O)O)=C(COC(N)=O)CS[C@@H]21", "note": "[Cefoxitin]", "Sensitivity Increased ?": "No"}
{"molecule": "O=C(N[C@H](CO)[C@H](O)c1ccc([N+](=O)[O-])cc1)C(Cl)Cl", "note": "[Chloramphenicol]", "Sensitivity Increased ?": "Yes"}
{"molecule": "CC[C@H]1OC(=O)[C@H](C)[C@@H](O[C@H]2C[C@@](C)(OC)[C@@H](O)[C@H](C)O2)[C@H](C)[C@@H](O[C@@H]2O[C@H](C)C[C@H](N(C)C)[C@H]2O)[C@](C)(O)C[C@@H](C)C(=O)[C@H](C)[C@@H](O)[C@]1(C)O", "note": "[Erythromycin]", "Sensitivity Increased ?": "Yes"}
{"molecule": "CC(=O)O[C@H]1C[C@@]2(C)[C@@H](C[C@@H](O)[C@H]3[C@@]4(C)CC[C@@H](O)[C@@H](C)[C@@H]4CC[C@@]32C)/C1=C(\\CCC=C(C)C)C(=O)O", "note": "[Fusidic acid]", "Sensitivity Increased ?": "Yes"}
{"molecule": "CCC[C@@H]1C[C@@H](C(=O)N[C@@H]([C@H]2O[C@H](SC)[C@H](O)[C@@H](O)[C@H]2O)[C@@H](C)O)N(C)C1", "note": "[Lincomycin]", "Sensitivity Increased ?": "Yes"}
{"molecule": "CCn1cc(C(=O)O)c(=O)c2ccc(C)nc21", "note": "[Nalidixic acid]", "Sensitivity Increased ?": "No"}
{"molecule": "CN[C@@H]1[C@H](O)[C@H](NC)[C@H]2O[C@@]3(O)C(=O)C[C@@H](C)O[C@H]3O[C@@H]2[C@H]1O", "note": "[Spectinomycin]", "Sensitivity Increased ?": "Yes"}
{"molecule": "[H]/N=C(/N)N[C@H]1[C@H](O)[C@@H](O)[C@H](O[C@@H]2O[C@@H](C)[C@](O)(C=O)[C@H]2O[C@@H]2O[C@@H](CO)[C@H](O)[C@@H](O)[C@@H]2NC)[C@@H](N/C(N)=N\\[H])[C@@H]1O", "note": "[Streptomycin]", "Sensitivity Increased ?": "Yes"}
{"molecule": "NC[C@H]1O[C@H](O[C@H]2[C@H](O)[C@@H](O[C@H]3O[C@H](CO)[C@@H](O)[C@H](N)[C@H]3O)[C@H](N)C[C@@H]2N)[C@H](N)C[C@@H]1O", "note": "[Tobramycin]", "Sensitivity Increased ?": "Yes"}
{"molecule": "CN[C@H](CC(C)C)C(=O)N[C@H]1C(=O)N[C@@H](CC(N)=O)C(=O)N[C@H]2C(=O)N[C@H]3C(=O)N[C@H](C(=O)N[C@H](C(=O)O)c4cc(O)cc(O)c4-c4cc3ccc4O)[C@H](O)c3ccc(c(Cl)c3)Oc3cc2cc(c3O[C@@H]2O[C@H](CO)[C@@H](O)[C@H](O)[C@H]2O[C@H]2C[C@](C)(N)[C@H](O)[C@H](C)O2)Oc2ccc(cc2Cl)[C@H]1O", "note": "[Vancomycin]", "Sensitivity Increased ?": "No"}
{"molecule": "Gentamicin", "Sensitivity Increased ?": "Yes"}
{"test_system": "E. coli strain DJKGC4", "assay": "Chitobiase-based cell growth assay, gentamicin dose response in 1536-well plate", "conditions": "5 hours, 100 μM MNAG", "experimental": "FIG. 6 is an E. coli dose response curve to gentamicin. E. coli strain DJKGC4 was inubated with various concentrations of gentamicin for 5 hours in a 1536 well plate in the presence of 100 μM 4-methylumbelliferyl N-acetyl β-D-glucosaminide (MNAG). After removal of background fluorescence, the inhibition of cell growth produced by each gentamicin concentration was calculated by comparison to the fluorescence generated by control cells growing in the absence of gentamicin.\nTo follow cell growth using the fluorogenic substrate MNAG, E. coli cells of strain DJKGC4 containing a chromosomally integrated, constitutively expressed chitobiase gene were added to an appropriate growth medium containing 100 μM MNAG, and the resulting cell suspension was dispensed into the wells of 1536-well microplates as described above. Following addition of test compounds and controls, plates were incubated at 37° C. and cell growth was followed by measurement of the fluorescent product of chitobiase activity, 4-methylumbelliferone using an Acquest reader (LJL Biosystems, excitation wavelength 360 nm, emission wavelength 425 nm).\nAn E. coli dose response to gentamicin was obtained by incubating E. coli strain DJKGC4 with various concentrations of gentamicin for 5 hours in a 1536-well plate in the presence of 100 μM MNAG. […]"}
{"molecule": "Gentamicin", "IC50 by the chitobiase-based assay compared with 384 well plate format, turbidity-based assays": "indistinguishable"}
